{"source": "ChEMBL document CHEMBL3885881", "about": "“DrugMatrix”", "species_on_record": "Rattus norvegicus", "test": "DrugMatrix - Regimen: Daily Repeat", "assay_type": "toxicity, organism-based, Sprague-Dawley", "parameters": "regimen Daily Repeat, gender Male, age 6-8 weeks", "conditions": "in vivo, po, 0 mg/kg, route oral GAVAGE, dose level Control, vehicle .5 % CMC; for BASOPHIL / EOSINOPHIL / ERYTHROCYTE COUNT / HEMATOCRIT / HEMOGLOBIN / LEUKOCYTE COUNT / LYMPHOCYTE / MEAN CORPUSCULAR HEMOGLOBIN / MEAN CORPUSCULAR HEMOGLOBIN CONCENTRATION / MEAN CORPUSCULAR VOLUME / MONOCYTE / NEUTROPHIL / PLATELET COUNT: tissue Blood; for ALANINE AMINOTRANSFERASE / ALBUMIN / ALKALINE PHOSPHATASE / ASPARTATE AMINOTRANSFERASE / BLOOD UREA NITROGEN / CARBON DIOXIDE / CHLORIDE / CHOLESTEROL / CREATINE PHOSPHOKINASE / CREATININE / GLUCOSE / LACTATE DEHYDROGENASE / LIPASE / PHOSPHORUS / POTASSIUM / SODIUM / TOTAL BILIRUBIN / TOTAL PROTEIN / URIC ACID: tissue Plasma", "data": [{"smiles": "Nc1cccc(Cl)c1", "note": "[3-CHLOROANILINE]", "values": [{"measurement": "BASOPHIL", "setting": "72 h, time 3 day", "value": 0.62, "unit": "%"}, {"measurement": "EOSINOPHIL", "setting": "72 h, time 3 day", "value": 0.52, "unit": "%"}, {"measurement": "ERYTHROCYTE COUNT", "setting": "72 h, time 3 day", "value": 6.33, "unit": "x10E6/uL"}, {"measurement": "HEMATOCRIT", "setting": "72 h, time 3 day", "value": 41.88, "unit": "%"}, {"measurement": "HEMOGLOBIN", "setting": "72 h, time 3 day", "value": 13.52, "unit": "G/DL"}, {"measurement": "LEUKOCYTE COUNT", "setting": "72 h, time 3 day", "value": 11.39, "unit": "x10E3/uL"}, {"measurement": "LYMPHOCYTE", "setting": "72 h, time 3 day", "value": 86.18, "unit": "%"}, {"measurement": "MEAN CORPUSCULAR HEMOGLOBIN", "setting": "72 h, time 3 day", "value": 21.35, "unit": "pg"}, {"measurement": "MEAN CORPUSCULAR HEMOGLOBIN CONCENTRATION", "setting": "72 h, time 3 day", "value": 32.23, "unit": "G/DL"}, {"measurement": "MEAN CORPUSCULAR VOLUME", "setting": "72 h, time 3 day", "value": 66.25, "unit": "fL"}, {"measurement": "MONOCYTE", "setting": "72 h, time 3 day", "value": 1.93, "unit": "%"}, {"measurement": "NEUTROPHIL", "setting": "72 h, time 3 day", "value": 9.1, "unit": "%"}, {"measurement": "PLATELET COUNT", "setting": "72 h, time 3 day", "value": 1204.5, "unit": "x10E3/uL"}, {"measurement": "ALANINE AMINOTRANSFERASE", "setting": "72 h, time 3 day", "value": 43, "unit": "u/L"}, {"measurement": "ALBUMIN", "setting": "72 h, time 3 day", "value": 4.08, "unit": "G/DL"}, {"measurement": "ALKALINE PHOSPHATASE", "setting": "72 h, time 3 day", "value": 426.33, "unit": "u/L"}, {"measurement": "ASPARTATE AMINOTRANSFERASE", "setting": "72 h, time 3 day", "value": 72.5, "unit": "u/L"}, {"measurement": "BLOOD UREA NITROGEN", "setting": "72 h, time 3 day", "value": 16.67, "unit": "mg/dL"}, {"measurement": "CARBON DIOXIDE", "setting": "72 h, time 3 day", "value": 28.33, "unit": "mmol/L"}, {"measurement": "CHLORIDE", "setting": "72 h, time 3 day", "value": 103.5, "unit": "MEQ/L"}, {"measurement": "CHOLESTEROL", "setting": "72 h, time 3 day", "value": 78.83, "unit": "mg/dL"}, {"measurement": "CREATINE PHOSPHOKINASE", "setting": "72 h, time 3 day", "value": 325.67, "unit": "u/L"}, {"measurement": "CREATININE", "setting": "72 h, time 3 day", "value": 0.48, "unit": "mg/dL"}, {"measurement": "GLUCOSE", "setting": "72 h, time 3 day", "value": 171.67, "unit": "mg/dL"}, {"measurement": "LACTATE DEHYDROGENASE", "setting": "72 h, time 3 day", "value": 107.33, "unit": "u/L"}, {"measurement": "LIPASE", "setting": "72 h, time 3 day", "value": 11.83, "unit": "u/L"}, {"measurement": "PHOSPHORUS", "setting": "72 h, time 3 day", "value": 12.55, "unit": "mg/dL"}, {"measurement": "POTASSIUM", "setting": "72 h, time 3 day", "value": 6.57, "unit": "MEQ/L"}, {"measurement": "SODIUM", "setting": "72 h, time 3 day", "value": 145.67, "unit": "MEQ/L"}, {"measurement": "TOTAL BILIRUBIN", "setting": "72 h, time 3 day", "value": 0.42, "unit": "mg/dL"}, {"measurement": "TOTAL PROTEIN", "setting": "72 h, time 3 day", "value": 6.1, "unit": "G/DL"}, {"measurement": "URIC ACID", "setting": "72 h, time 3 day", "value": 1.57, "unit": "mg/dL"}, {"measurement": "BASOPHIL", "setting": "120 h, time 5 day", "value": 0.48, "unit": "%"}, {"measurement": "EOSINOPHIL", "setting": "120 h, time 5 day", "value": 0.67, "unit": "%"}, {"measurement": "ERYTHROCYTE COUNT", "setting": "120 h, time 5 day", "value": 6.69, "unit": "x10E6/uL"}, {"measurement": "HEMATOCRIT", "setting": "120 h, time 5 day", "value": 44.17, "unit": "%"}, {"measurement": "HEMOGLOBIN", "setting": "120 h, time 5 day", "value": 13.78, "unit": "G/DL"}, {"measurement": "LEUKOCYTE COUNT", "setting": "120 h, time 5 day", "value": 7.86, "unit": "x10E3/uL"}, {"measurement": "LYMPHOCYTE", "setting": "120 h, time 5 day", "value": 85.9, "unit": "%"}, {"measurement": "MEAN CORPUSCULAR HEMOGLOBIN", "setting": "120 h, time 5 day", "value": 20.6, "unit": "pg"}, {"measurement": "MEAN CORPUSCULAR HEMOGLOBIN CONCENTRATION", "setting": "120 h, time 5 day", "value": 31.25, "unit": "G/DL"}, {"measurement": "MEAN CORPUSCULAR VOLUME", "setting": "120 h, time 5 day", "value": 65.9, "unit": "fL"}, {"measurement": "MONOCYTE", "setting": "120 h, time 5 day", "value": 3.27, "unit": "%"}, {"measurement": "NEUTROPHIL", "setting": "120 h, time 5 day", "value": 8.67, "unit": "%"}, {"measurement": "PLATELET COUNT", "setting": "120 h, time 5 day", "value": 1182.33, "unit": "x10E3/uL"}, {"measurement": "ALANINE AMINOTRANSFERASE", "setting": "120 h, time 5 day", "value": 37.5, "unit": "u/L"}, {"measurement": "ALBUMIN", "setting": "120 h, time 5 day", "value": 4, "unit": "G/DL"}, {"measurement": "ALKALINE PHOSPHATASE", "setting": "120 h, time 5 day", "value": 348.17, "unit": "u/L"}, {"measurement": "ASPARTATE AMINOTRANSFERASE", "setting": "120 h, time 5 day", "value": 71.67, "unit": "u/L"}, {"measurement": "BLOOD UREA NITROGEN", "setting": "120 h, time 5 day", "value": 13, "unit": "mg/dL"}, {"measurement": "CARBON DIOXIDE", "setting": "120 h, time 5 day", "value": 27, "unit": "mmol/L"}, {"measurement": "CHLORIDE", "setting": "120 h, time 5 day", "value": 104.67, "unit": "MEQ/L"}, {"measurement": "CHOLESTEROL", "setting": "120 h, time 5 day", "value": 73.33, "unit": "mg/dL"}, {"measurement": "CREATINE PHOSPHOKINASE", "setting": "120 h, time 5 day", "value": 211.33, "unit": "u/L"}, {"measurement": "CREATININE", "setting": "120 h, time 5 day", "value": 0.23, "unit": "mg/dL"}, {"measurement": "GLUCOSE", "setting": "120 h, time 5 day", "value": 155, "unit": "mg/dL"}, {"measurement": "LACTATE DEHYDROGENASE", "setting": "120 h, time 5 day", "value": 133.83, "unit": "u/L"}, {"measurement": "LIPASE", "setting": "120 h, time 5 day", "value": 11.17, "unit": "u/L"}, {"measurement": "PHOSPHORUS", "setting": "120 h, time 5 day", "value": 14.53, "unit": "mg/dL"}, {"measurement": "POTASSIUM", "setting": "120 h, time 5 day", "value": 6.65, "unit": "MEQ/L"}, {"measurement": "SODIUM", "setting": "120 h, time 5 day", "value": 148.17, "unit": "MEQ/L"}, {"measurement": "TOTAL BILIRUBIN", "setting": "120 h, time 5 day", "value": 0.28, "unit": "mg/dL"}, {"measurement": "TOTAL PROTEIN", "setting": "120 h, time 5 day", "value": 6.22, "unit": "G/DL"}, {"measurement": "URIC ACID", "setting": "120 h, time 5 day", "value": 1.57, "unit": "mg/dL"}, {"measurement": "BASOPHIL", "setting": "[…], time 14 day", "value": 0.97, "unit": "%"}, {"measurement": "EOSINOPHIL", "setting": "[…], time 14 day", "value": 0.8, "unit": "%"}, {"measurement": "ERYTHROCYTE COUNT", "setting": "[…], time 14 day", "value": 7.02, "unit": "x10E6/uL"}, {"measurement": "HEMATOCRIT", "setting": "[…], time 14 day", "value": 44.43, "unit": "%"}, {"measurement": "HEMOGLOBIN", "setting": "[…], time 14 day", "value": 14.58, "unit": "G/DL"}, {"measurement": "LEUKOCYTE COUNT", "setting": "[…], time 14 day", "value": 16.49, "unit": "x10E3/uL"}, {"measurement": "LYMPHOCYTE", "setting": "[…], time 14 day", "value": 79.03, "unit": "%"}, {"measurement": "MEAN CORPUSCULAR HEMOGLOBIN", "setting": "[…], time 14 day", "value": 20.85, "unit": "pg"}, {"measurement": "MEAN CORPUSCULAR HEMOGLOBIN CONCENTRATION", "setting": "[…], time 14 day", "value": 32.78, "unit": "G/DL"}, {"measurement": "MEAN CORPUSCULAR VOLUME", "setting": "[…], time 14 day", "value": 63.57, "unit": "fL"}, {"measurement": "MONOCYTE", "setting": "[…], time 14 day", "value": 1.9, "unit": "%"}, {"measurement": "NEUTROPHIL", "setting": "[…], time 14 day", "value": 15.18, "unit": "%"}, {"measurement": "PLATELET COUNT", "setting": "[…], time 14 day", "value": 1184.33, "unit": "x10E3/uL"}, {"measurement": "ALANINE AMINOTRANSFERASE", "setting": "[…], time 14 day", "value": 43, "unit": "u/L"}, {"measurement": "ALBUMIN", "setting": "[…], time 14 day", "value": 4.25, "unit": "G/DL"}, {"measurement": "ALKALINE PHOSPHATASE", "setting": "[…], time 14 day", "value": 409.67, "unit": "u/L"}]}]}
